Experimental data reported in the supplement of paper PMC4932681.
Structures can show the parent of a compound that is named as a salt.

Key:
Assay in all cases: viability inhibition at highest dose (% inhibition); higher = more growth inhibition
[1] = system: ZR-75-1 Tam2; conditions: 4-OH-tamoxifen in medium 1 µM; 72 h
Procedure: (§1)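 Percent inhibition of viability (CellTiter-Glo, 72 h) at the highest tested concentration (D5), normalised to DMSO (0%) and 100 µM benzethonium chloride (100%). Resistant lines and the 'in 1µM tamoxifen' arms were tested in 1 µM 4-OH-tamoxifen.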

[2] = system: BT-474 Tam1; conditions: 4-OH-tamoxifen in medium 1 µM; 72 h
Procedure: as §1

[3] = system: T-47D Tam2; conditions: 4-OH-tamoxifen in medium 1 µM; 72 h
Procedure: as §1

[4] = system: ZR-75-1; conditions: 72 h
Procedure: as §1

[5] = system: BT-474 Tam2; conditions: 4-OH-tamoxifen in medium 1 µM; 72 h
Procedure: as §1

[6] = system: BT-474; conditions: 72 h
Procedure: as §1

[7] = system: T-47D Tam1; conditions: 4-OH-tamoxifen in medium 1 µM; 72 h
Procedure: as §1

[8] = system: MCF-7 Tam1; conditions: 4-OH-tamoxifen in medium 1 µM; 72 h
Procedure: as §1

[9] = system: T-47D; conditions: 72 h
Procedure: as §1

[10] = system: MCF-7; conditions: 72 h
Procedure: as §1

[11] = system: ZR-75-1 Tam1; conditions: 4-OH-tamoxifen in medium 1 µM; 72 h
Procedure: as §1

Compound	viability inhibition at highest dose [1]	viability inhibition at highest dose [2]	viability inhibition at highest dose [3]	viability inhibition at highest dose ([4]; 4-OH-tamoxifen in medium 0 µM)	viability inhibition at highest dose ([4]; 4-OH-tamoxifen in medium 1 µM)	viability inhibition at highest dose [5]	viability inhibition at highest dose ([6]; 4-OH-tamoxifen in medium 0 µM)	viability inhibition at highest dose ([6]; 4-OH-tamoxifen in medium 1 µM)	viability inhibition at highest dose [7]	viability inhibition at highest dose [8]	viability inhibition at highest dose ([9]; 4-OH-tamoxifen in medium 0 µM)	viability inhibition at highest dose ([9]; 4-OH-tamoxifen in medium 1 µM)	viability inhibition at highest dose ([10]; 4-OH-tamoxifen in medium 0 µM)	viability inhibition at highest dose ([10]; 4-OH-tamoxifen in medium 1 µM)	viability inhibition at highest dose [11]
CN(C)C[C@@H]1CCn2cc(c3ccccc32)C2=C(C(=O)NC2=O)c2cn(c3ccccc23)CCO1 (drug 10000 nM)	47.1	100	70.2	45.5	70.9	98	76	101	71.2	22.1	72.1	97.4	99.8	69.5	37.7
O=C(/C=C/c1cccnc1)NCCCCC1CCN(C(=O)c2ccccc2)CC1 [Daporinad (FK-866 HCl)] (drug 1000 nM)	0.891	47.2	85.3	-2.09	-11.5	17.4	12.2	64.7	91.9	-5.53	92.2	90.2	76.6	67.9	-12.7
CC(C)c1c(C(=O)Nc2ccccc2)c(-c2ccccc2)c(-c2ccc(F)cc2)n1CC[C@@H](O)C[C@@H](O)CC(=O)O [Atorvastatin] (drug 10000 nM)	39.9	12.4	18.7	48.4	36.5	28.2	13.8	7.75	29.2	13.7	35.6	36.5	23.9	19.8	44.5
O=P1(N(CCCl)CCCl)NCCCO1 (stereo not given) [Clafen (Cyclophosphamide, Endoxan)] (drug 40000 nM)	-3.35	-0.665	11.9	-3.78	-1.89	2.47	-4.59	-11.3	-3.65	1.76	-14	-13.7	-6.33	11	7.03
COc1ccc(C2=N[C@@H](c3ccc(Cl)cc3)[C@@H](c3ccc(Cl)cc3)N2C(=O)N2CCNC(=O)C2)c(OC(C)C)c1 [Nutlin-3] (drug 10000 nM)	42.8	33.4	20.4	36	29.7	29.7	-7.59	11.2	15.8	16.7	1.78	1.4	28.5	45.2	31.8
N#Cc1ccc(COC[C@H]2O[C@@H](n3c(NCc4ccc(Cl)c(Cl)c4)nc4c(N)ncnc43)[C@H](O)[C@@H]2O)cc1 (drug 10000 nM)	51.2	49.5	34.5	55.3	49.5	38.6	20.7	65.8	48	25.6	42.5	29	46.5	49.6	46.4
CCCC(CCC)C(=O)O [Valproic acid] (drug 10000 nM)	-3.03	4.24	24.2	-14.3	1.2	-2.85	-9.64	-2.48	1.44	1.78	-15.5	12.5	-31.2	-5.39	3.1
Nc1nc(F)nc2c1ncn2[C@@H]1O[C@H](CO)[C@@H](O)[C@@H]1O [Fludarabine] (drug 10000 nM)	-3.77	2.46	-0.0717	-0.221	-4.24	4.57	-6.6	-12.5	20.4	-4.15	-8	-12.2	-24.7	10	-3.09
CC(C)C[C@H](NC(=O)[C@H](Cc1ccccc1)NC(=O)c1cnccn1)B(O)O [Bortezomib] (drug 1000 nM)	64.6	98.8	96.2	71	64	98.7	62.6	97.9	97.2	73.6	94.5	93.6	74.1	92.4	71.5
COC(=O)c1ccc2c(c1)NC(=O)/C2=C(\Nc1ccc(N(C)C(=O)CN2CCN(C)CC2)cc1)c1ccccc1 [Nintedanib (BIBF 1120)] (drug 10000 nM)	-3.8	30.7	5.71	-10.8	-9.4	-5.56	5.93	24.8	-2.42	-3.72	-18.3	-16.7	12.4	3.6	7.5
COc1ccc(-c2cc3c(C)nc(N)nc3n([C@H]3CC[C@H](OCCO)CC3)c2=O)cn1 (drug 10000 nM)	88.1	100	88.2	83.5	76.1	94.3	96.1	100	92.6	67.1	94.6	93.7	79.9	82.6	86.8
C[C@]1(c2nc3c(C(N)=O)cccc3[nH]2)CCCN1 [Veliparib  (ABT-888)] (drug 10000 nM)	6.18	6.83	6.94	-8.51	2.27	-7.23	-7.48	9.81	2.73	-2.94	-14.2	-15.3	8.41	-2.66	2.16
CN1CCN(CCOc2cc(OC3CCOCC3)c3c(Nc4c(Cl)ccc5c4OCO5)ncnc3c2)CC1 [Saracatinib] (drug 10000 nM)	-17.9	100	27.9	-37.6	-19.4	100	50.3	94.4	36.6	4.6	17.5	-7.13	25.2	15	-10.5
COc1cc([C@@H]2c3cc4c(cc3[C@@H](O[C@@H]3O[C@@H]5CO[C@@H](C)O[C@H]5[C@H](O)[C@H]3O)[C@H]3COC(=O)[C@H]23)OCO4)cc(OC)c1O [Etoposide] (drug 10000 nM)	15.5	14	7.25	32.5	19.4	-7.49	-4.44	27.7	42.1	-2.1	46.7	15.7	8.22	12.7	23
N[C@@H](CSC(c1ccccc1)(c1ccccc1)c1ccccc1)C(=O)O [S-trityl-L-cysteine] (drug 40000 nM)	3.17	23.3	4.25	9.84	13	-5.53	-1.05	23.9	4.09	-5.14	2.31	4.34	0.988	18.1	4.16
OC[C@H]1O[C@@H](n2cnc3c2N=CNC[C@H]3O)C[C@@H]1O [Pentostatin] (drug 10000 nM)	40.8	30.3	35.5	48.5	41.3	16	15.9	13.3	48	19.7	45.1	28.1	47.4	30.7	46.9
Nc1ccccc1NC(=O)c1ccc(CNC(=O)OCc2cccnc2)cc1 [Entinostat] (drug 10000 nM)	27.5	79	10.9	33.7	10.2	53.2	61.4	83.9	60.3	5.52	66.4	36.6	62.3	40.4	28.8
Cc1ccc(NC(=O)c2ccc(CN3CCN(C)CC3)cc2)cc1Nc1nccc(-c2cccnc2)n1 [Imatinib] (drug 10000 nM)	8.38	49.1	20.5	0.33	17.8	27.2	-0.39	23.3	3.96	4.63	10.4	5.9	-13.1	11.1	7.91
CN(C)C/C=C/C(=O)Nc1cc2c(Nc3ccc(F)c(Cl)c3)ncnc2cc1O[C@H]1CCOC1 [Afatinib (BIBW2992, Tovok)] (drug 1000 nM)	-3.77	95.9	16.6	-5.16	1.48	95.5	82.2	93.8	19.8	-0.193	0.755	-3.23	-11.5	19	0.501
C[C@]12CC[C@@H]3c4ccc(OC(=O)N(CCCl)CCCl)cc4CC[C@H]3[C@@H]1CC[C@@H]2O [Estramustine] (drug 990000 nM)	-3.72	-8.94	4.35	-4.2	3.75	1.08	-9.96	-0.556	-1.27	-4.18	-27.1	-3.37	-17	-12.1	0.469
CN1CCc2c(c3ccccc3n2Cc2ccc(C(=O)NO)cc2)C1 [Tubastatin A] (drug 10000 nM)	12.3	36.4	11.4	17.4	18.8	12.3	8.77	28.9	0.672	2.15	2.46	1.6	10.2	17.2	16.1
Cc1[nH]c2ccccc2c1CCNCc1ccc(/C=C/C(=O)NO)cc1 [Panobinostat] (drug 1000 nM)	51.4	84.4	68.7	50.5	40.7	69.6	87.5	97.2	85.3	21.3	96.4	95.5	89.4	88.4	43.1
CN1CCN(c2nc(C3=C(c4c[nH]c5ccccc45)C(=O)NC3=O)c3ccccc3n2)CC1 [Sotrastaurin] (drug 10000 nM)	7.03	65.2	6.92	6.75	14.4	25.2	9.38	48.9	8.91	8.16	-8.99	1.91	21.3	10	9.64
Cn1nnc2c(C(N)=O)ncn2c1=O [Temozolomide] (drug 10000 nM)	0.839	19.9	-13	11.9	-5.2	-6.27	-5.95	22.9	1.44	1.07	0.803	1.13	-13.8	-0.417	6.09
CC[C@H](Nc1ncnc2[nH]cnc12)c1nc2cccc(F)c2c(=O)n1-c1ccccc1 [CAL-101] (drug 10000 nM)	57.3	8.87	33.6	45.9	45	5.84	4.44	17	24.5	-0.638	15.2	13.7	22.4	21.3	50.8
NCCCNCCSP(=O)(O)O [Amifostine] (drug 10000 nM)	-10.8	-0.954	7	-8.06	-7.66	-1.33	-2.99	1.56	-2.35	-11.7	-8.52	-1.52	-14.2	-5.03	1.78
CCNC(=O)CCC/C=C\C[C@@H]1[C@@H](/C=C/[C@@H](O)CCc2ccccc2)[C@H](O)C[C@@H]1O [Bimatoprost] (drug 5500 nM)	-15.8	-14.6	-4.37	-13.7	-4.04	-16.2	-10.2	-22.1	-9.33	-5.08	-18.2	-17.9	10.1	-1.71	-5.04
